# Results from PubChem BioAssay (NCI).
#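 Values below derive from 48-hour exposures of cells grown in 96-well plates, with endpoints linearly interpolated between the two concentrations bracketing the appropriate inhibition level. Here, GI50 denotes the concentration required for 50% inhibition of growth. TGI denotes the concentration required for complete inhibition of growth.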
# Columns and labels:
# Test in all cases: growth of human tumour cells (NCI), 48 h
# [1] = test system: SK-OV-3 ovarian
# [2] = test system: UO-31 renal
# [3] = test system: LOX IMVI melanoma
# [4] = test system: SN12C renal
# [5] = test system: OVCAR-8 ovarian
# [6] = test system: OVCAR-5 ovarian
# [7] = test system: SNB-75 CNS
# [8] = test system: CCRF-CEM leukemia
# [9] = test system: NCI-H460 lung
# [10] = test system: MCF7 breast
# [11] = test system: T-47D breast
# [12] = test system: COLO 205 colon
# [13] = test system: RXF 393 renal
# [14] = test system: UACC-257 melanoma
# [15] = test system: A549 NSCLC
# [16] = test system: HOP-62 NSCLC
# [17] = test system: HCC-2998 colon
# [18] = test system: TK-10 renal
# [19] = test system: NCI-H522 lung
# [20] = test system: OVCAR-4 ovarian
# [21] = test system: UACC-62 melanoma
# [22] = test system: K-562 leukemia
# [23] = test system: DU-145 prostate
# [24] = test system: EKVX NSCLC
# [25] = test system: PC-3 prostate
# [26] = test system: BT-549 breast
# [27] = test system: HS 578T breast
# [28] = test system: SR leukemia
# [29] = test system: NCI-H226 lung
# [30] = test system: SNB-19 CNS
# [31] = test system: SK-MEL-2 melanoma
# [32] = test system: SF-539 CNS
# [33] = test system: A498 renal
# [34] = test system: NCI/ADR-RES ovarian
# [35] = test system: OVCAR-3 ovarian
# [36] = test system: MDA-MB-231 breast
# [37] = test system: KM12 colon
# [38] = test system: SF-295 CNS
# [39] = test system: CAKI-1 renal
# [40] = test system: SK-MEL-28 melanoma
# [41] = test system: HOP-92 NSCLC
# [42] = test system: ACHN renal
# [43] = test system: 786-0 renal
# [44] = test system: SK-MEL-5 melanoma
# [45] = test system: RPMI-8226 leukemia
# [46] = test system: NCI-H23 lung
# [47] = test system: U251 CNS
# [48] = test system: HCT-116 colon
# [49] = test system: MDA-MB-435
# [50] = test system: M14 melanoma
# [51] = test system: MOLT-4 leukemia
# [52] = test system: HT29 colon
# [53] = test system: MALME-3M melanoma
# [54] = test system: HL-60(TB) leukemia
# [55] = test system: SF-268 CNS
# [56] = test system: IGROV1 ovarian
# [57] = test system: HCT-15 colon
# [58] = test system: SW-620 colon
structure (smiles),measurement,setting,value
COC1=CC(c2ccc[nH]2)=N/C1=C\c1[nH]c(C)c(C(=O)Oc2ccccc2)c1C,GI50,[1],1680 nM
same,TGI,[1],7350 nM
same,GI50,[2],150 nM
same,TGI,[2],350 nM
same,GI50,[3],19.7 nM
same,TGI,[3],47.2 nM
same,GI50,[4],387 nM
same,TGI,[4],2410 nM
same,GI50,[5],288 nM
same,TGI,[5],1450 nM
same,GI50,[6],389 nM
same,TGI,[6],1990 nM
same,GI50,[7],274 nM
same,GI50,[8],62.5 nM
same,TGI,[8],> 100000 nM
same,GI50,[9],77 nM
same,TGI,[9],1400 nM
same,GI50,[10],272 nM
same,TGI,[10],1490 nM
same,GI50,[11],403 nM
same,TGI,[11],1800 nM
same,GI50,[12],345 nM
same,TGI,[12],1430 nM
same,GI50,[13],267 nM
same,TGI,[13],1780 nM
same,GI50,[14],545 nM
same,TGI,[14],2410 nM
same,GI50,[15],344 nM
same,TGI,[15],2010 nM
same,GI50,[16],710 nM
same,TGI,[16],3860 nM
same,GI50,[17],243 nM
same,TGI,[17],1420 nM
same,GI50,[18],336 nM
same,TGI,[18],2550 nM
same,GI50,[19],227 nM
same,TGI,[19],979 nM
same,GI50,[20],236 nM
same,GI50,[21],198 nM
same,TGI,[21],427 nM
same,GI50,[22],292 nM
same,TGI,[22],> 100000 nM
same,GI50,[23],295 nM
same,TGI,[23],> 100000 nM
same,GI50,[24],164 nM
same,TGI,[24],2970 nM
same,GI50,[25],117 nM
same,TGI,[25],> 100000 nM
same,GI50,[26],384 nM
same,TGI,[26],4200 nM
same,GI50,[27],205 nM
same,TGI,[27],828 nM
same,GI50,[28],200 nM
same,TGI,[28],1110 nM
same,GI50,[29],438 nM
same,TGI,[29],1960 nM
same,GI50,[30],1290 nM
same,TGI,[30],> 100000 nM
same,GI50,[31],194 nM
same,TGI,[31],479 nM
same,GI50,[32],360 nM
same,TGI,[32],1630 nM
same,GI50,[33],648 nM
same,TGI,[33],2560 nM
same,GI50,[34],185 nM
same,TGI,[34],1460 nM
same,GI50,[35],212 nM
same,TGI,[35],1180 nM
same,GI50,[36],79.5 nM
same,TGI,[36],457 nM
same,GI50,[37],118 nM
same,TGI,[37],1690 nM
same,GI50,[38],329 nM
same,TGI,[38],1950 nM
same,GI50,[39],67.9 nM
same,GI50,[40],595 nM
same,TGI,[40],1990 nM
same,GI50,[41],189 nM
same,TGI,[41],564 nM
same,GI50,[42],230 nM
same,TGI,[42],1170 nM
same,GI50,[43],313 nM
same,TGI,[43],1640 nM
same,GI50,[44],92.9 nM
same,TGI,[44],269 nM
same,GI50,[45],284 nM
same,TGI,[45],2020 nM
same,GI50,[46],227 nM
same,TGI,[46],1950 nM
same,GI50,[47],148 nM
same,TGI,[47],1600 nM
same,GI50,[48],42.7 nM
same,TGI,[48],1170 nM
O=C(NC1CCN(Cc2ccccc2)CC1)c1cccc(I)c1,TGI,[1],42800 nM
same,TGI,[2],31600 nM
same,TGI,[3],37800 nM
same,TGI,[49],34900 nM
same,TGI,[4],> 100000 nM
same,TGI,[5],> 100000 nM
same,TGI,[6],> 100000 nM
same,TGI,[50],30900 nM
same,TGI,[51],> 100000 nM
same,TGI,[52],43700 nM
same,TGI,[53],32500 nM
same,TGI,[8],> 100000 nM
same,TGI,[9],63700 nM
same,TGI,[11],61000 nM
same,TGI,[12],32500 nM
same,TGI,[13],> 100000 nM
same,TGI,[14],33200 nM
same,TGI,[15],> 100000 nM
same,TGI,[16],30600 nM
same,TGI,[18],65200 nM
same,TGI,[19],32900 nM
same,TGI,[20],> 100000 nM
same,TGI,[21],40100 nM
same,TGI,[22],> 100000 nM
same,TGI,[23],> 100000 nM
same,TGI,[24],> 100000 nM
same,TGI,[54],> 100000 nM
same,TGI,[25],> 100000 nM
same,TGI,[26],> 100000 nM
same,TGI,[27],83000 nM
same,TGI,[28],80300 nM
same,TGI,[29],78100 nM
same,TGI,[30],> 100000 nM
same,TGI,[31],38500 nM
same,TGI,[32],51600 nM
same,TGI,[33],> 100000 nM
same,TGI,[34],> 100000 nM
same,TGI,[35],> 100000 nM
same,TGI,[36],32100 nM
same,TGI,[37],33600 nM
same,TGI,[55],> 100000 nM
same,TGI,[38],33800 nM
same,TGI,[39],54500 nM
same,TGI,[40],37400 nM
same,TGI,[41],62700 nM
same,TGI,[42],> 100000 nM
same,TGI,[43],57800 nM
same,TGI,[44],31200 nM
same,TGI,[56],> 100000 nM
same,TGI,[45],69200 nM
same,TGI,[57],35600 nM
same,TGI,[46],63300 nM
same,TGI,[47],56200 nM
same,TGI,[48],28900 nM
same,TGI,[58],30900 nM
